Twelve sequences from patent publication US20260250318A1, “COMPOSITIONS AND METHODS FOR CROSSING THE BLOOD BRAIN BARRIER” (VOYAGER THERAPEUTICS, INC., priority 2022, published 2026) can be followed below.

The test system of assay [1] is brain. The assay is described as follows: Matured TTM-001 and TTM-002 variants, NGS enrichment in mouse brain. It counts as in vivo, mice. The following applies: relative to AAV9 control.
Assay [2] relates to brains, heart, liver, muscle, and DRG of the NHPs. Nature of the assay: Maturation of TTM-001 and TTM-002 capsids, NGS enrichment in NHP tissues. The settings on record: relative to AAV9 control. It is filed as in vivo. The procedure, abridged:
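Variants carry mutations within and flanking the loop IV peptide insert: positions 450–466 were triplet-randomized, while positions 449–466 received low-frequency point mutations. The combined pool went into two NHPs, and each peptide was scored by NGS enrichment ratio against AAV9.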

[3] abbreviates: NGS fold-enrichment, brain of mice.
Setting [4] is: NGS fold-enrichment, mouse brain.
The mark [5] stands for this setting: NGS fold-enrichment of RNA, NHP brain.
The mark [6] stands for this setting: NGS fold-enrichment, DRG of NHPs.
Setting [7] is: NGS fold-enrichment, NHP liver DNA.
The mark [8] stands for this setting: NGS fold-enrichment, NHP liver RNA.
The mark [9] stands for this setting: NGS fold-enrichment, NHP muscle.
Where [10] appears, read: NGS fold-enrichment, RNA, brain of NHPs.
[11] abbreviates: NGS fold-enrichment, heart of NHPs.
Where [12] appears, read: NGS fold-enrichment, liver DNA of NHPs.
Setting [13] is: NGS fold-enrichment, liver RNA of NHPs.
[14] abbreviates: NGS fold-enrichment, muscle of NHPs.
[15] abbreviates: NGS fold-enrichment of matured AAV capsid variants, NHP brain, RNA.

As for KTVNGSGSPHSKTQSQQT, the “Fold Enrichment relative to AAV9, Brain (Mouse)” value in assay [1] (setting [3]) and in assay [1] (setting [4]) was 63.248 fold each time. In addition, the “Fold Enrichment relative to AAV9, Brain (NHP)” value in assay [2] (setting [5]) and in assay [2] (setting [10]) was 115.086 fold throughout. Besides, the “Fold Enrichment relative to AAV9, DRG (NHP)” value in assay [2] (setting [6]) is reported as 0.000 fold; in assay [2] (NGS fold-enrichment, NHP DRG), 0.000 fold. For the same sequence, the “Fold Enrichment relative to AAV9, Heart (NHP)” value in assay [2] (NGS fold-enrichment, NHP heart) worked out at 0.726 fold; in assay [2] (setting [11]), 0.726 fold. Further, the “Fold Enrichment relative to AAV9, Liver DNA (NHP)” value in assay [2] (setting [7]) and in assay [2] (setting [12]) was 0.340 fold throughout. For the same sequence, the “Fold Enrichment relative to AAV9, Liver RNA (NHP)” value in assay [2] (setting [8]) and in assay [2] (setting [13]) was 0.000 fold in each case. Besides, the “Fold Enrichment relative to AAV9, Muscle (NHP)” value in assay [2] (setting [9]) and in assay [2] (setting [14]) was 0.000 fold in each case.
Consider KAINGHDSPHKSAQSQQT, for which the “Fold Enrichment relative to AAV9, Brain (Mouse)” value in assay [1] (setting [4]) is 14.595 fold. In assay [2] (setting [5]), the “Fold Enrichment relative to AAV9, Brain (NHP)” value is 95.204 fold. Besides, the “Fold Enrichment relative to AAV9, DRG (NHP)” value in assay [2] (NGS fold-enrichment, NHP DRG) is on record as 0.146 fold. Besides, the “Fold Enrichment relative to AAV9, Heart (NHP)” value in assay [2] (NGS fold-enrichment, NHP heart) stood at 0.310 fold. In addition, the “Fold Enrichment relative to AAV9, Liver DNA (NHP)” value in assay [2] (setting [7]) is 0.058 fold. For the same sequence, the “Fold Enrichment relative to AAV9, Liver RNA (NHP)” value in assay [2] (setting [8]) was determined as 0.699 fold. Further, the “Fold Enrichment relative to AAV9, Muscle (NHP)” value in assay [2] (setting [9]) is 0.000 fold.
On to KTVRDSGSPHSKAQNQQT, for which the “Fold Enrichment relative to AAV9, Brain (Mouse)” value in assay [1] (setting [3]) is 142.600 fold. Besides, in assay [2] (setting [6]), the “Fold Enrichment relative to AAV9, DRG (NHP)” value is listed as 0.000 fold. In addition, the “Fold Enrichment relative to AAV9, Brain (NHP)” value in assay [2] (setting [10]) is given as 66.056 fold. Moreover, the “Fold Enrichment relative to AAV9, Heart (NHP)” value in assay [2] (setting [11]) stood at 0.025 fold. Further, in assay [2] (setting [12]), the “Fold Enrichment relative to AAV9, Liver DNA (NHP)” value is 0.461 fold. Besides, the “Fold Enrichment relative to AAV9, Liver RNA (NHP)” value in assay [2] (setting [13]) was found to be 0.129 fold. The “Fold Enrichment relative to AAV9, Muscle (NHP)” value in assay [2] (setting [14]) is 0.000 fold.
In the case of KTEKSSGSPHSKAQNQQT, the “Fold Enrichment relative to AAV9, Brain (Mouse)” value in assay [1] (setting [3]) and in assay [1] (setting [4]) was 100.177 fold in each case. The “Fold Enrichment relative to AAV9, Brain (NHP)” value in assay [2] (setting [5]) and in assay [2] (setting [10]) was 107.470 fold in each case. In addition, the “Fold Enrichment relative to AAV9, DRG (NHP)” value in assay [2] (setting [6]) came to 0.000 fold; in assay [2] (NGS fold-enrichment, NHP DRG), 0.000 fold. The “Fold Enrichment relative to AAV9, Heart (NHP)” value in assay [2] (NGS fold-enrichment, NHP heart) was determined as 0.016 fold; in assay [2] (setting [11]) it was 0.016 fold. Further, the “Fold Enrichment relative to AAV9, Liver DNA (NHP)” value in assay [2] (setting [7]) and in assay [2] (setting [12]) was 0.179 fold each time. The “Fold Enrichment relative to AAV9, Liver RNA (NHP)” value in assay [2] (setting [8]) and in assay [2] (setting [13]) was 0.977 fold in each case. The “Fold Enrichment relative to AAV9, Muscle (NHP)” value in assay [2] (setting [9]) and in assay [2] (setting [14]) was 0.014 fold throughout.
For the sequence KTIIGGGSPHSKAHNQQT, the “Fold Enrichment relative to AAV9, Brain (Mouse)” value in assay [1] (setting [3]) and in assay [1] (setting [4]) was 65.492 fold each time. Besides, the “Fold Enrichment relative to AAV9, Brain (NHP)” value in assay [2] (setting [5]) and in assay [2] (setting [10]) was 75.872 fold throughout. Also, the “Fold Enrichment relative to AAV9, DRG (NHP)” value came out at 0.000 fold in assay [2] (setting [6]) and 0.000 fold in assay [2] (NGS fold-enrichment, NHP DRG). The “Fold Enrichment relative to AAV9, Heart (NHP)” value in assay [2] (NGS fold-enrichment, NHP heart) is given as 0.050 fold; in assay [2] (setting [11]), 0.050 fold. The “Fold Enrichment relative to AAV9, Liver DNA (NHP)” value in assay [2] (setting [7]) and in assay [2] (setting [12]) was 0.235 fold each time. Besides, the “Fold Enrichment relative to AAV9, Liver RNA (NHP)” value in assay [2] (setting [8]) and in assay [2] (setting [13]) was 0.000 fold each time. Besides, the “Fold Enrichment relative to AAV9, Muscle (NHP)” value in assay [2] (setting [9]) and in assay [2] (setting [14]) was 0.000 fold in each case.
As to KTINGRGSPHKRGQNQQT, in assay [1] (setting [4]), the “Fold Enrichment relative to AAV9, Brain (Mouse)” value is on record as 13.988 fold. For the same sequence, in assay [2] (setting [5]), the “Fold Enrichment relative to AAV9, Brain (NHP)” value was determined as 120.889 fold. The “Fold Enrichment relative to AAV9, DRG (NHP)” value in assay [2] (NGS fold-enrichment, NHP DRG) is recorded as 0.100 fold. For the same sequence, the “Fold Enrichment relative to AAV9, Heart (NHP)” value in assay [2] (NGS fold-enrichment, NHP heart) is recorded as 0.814 fold. The “Fold Enrichment relative to AAV9, Liver DNA (NHP)” value in assay [2] (setting [7]) was 0.614 fold. Moreover, the “Fold Enrichment relative to AAV9, Liver RNA (NHP)” value in assay [2] (setting [8]) is recorded as 0.458 fold. The “Fold Enrichment relative to AAV9, Muscle (NHP)” value in assay [2] (setting [9]) amounted to 0.434 fold.
With KAETGSGSPHSKAQNQQT, the “Fold Enrichment relative to AAV9, Brain (Mouse)” value in assay [1] (mouse brain) was determined as 132.940 fold. Also, in assay [2] (setting [15]), the “Fold Enrichment relative to AAV9, Brain (NHP)” value worked out at 52.219 fold. For the same sequence, in assay [2] (NHP DRG), the “Fold Enrichment relative to AAV9, DRG (NHP)” value worked out at 0.000 fold. For the same sequence, the “Fold Enrichment relative to AAV9, Heart (NHP)” value in assay [2] (NHP heart) is 0.047 fold. Moreover, the “Fold Enrichment relative to AAV9, Liver DNA (NHP)” value in assay [2] (NHP liver, DNA) was determined as 0.188 fold. The “Fold Enrichment relative to AAV9, Liver RNA (NHP)” value in assay [2] (NHP liver, RNA) came to 0.009 fold. The “Fold Enrichment relative to AAV9, Muscle (NHP)” value in assay [2] (NHP muscle) is recorded as 0.581 fold.
For the sequence KTVNGHDSPHKIGHNQQT, in assay [1] (setting [4]), the “Fold Enrichment relative to AAV9, Brain (Mouse)” value is 10.167 fold. For the same sequence, in assay [2] (setting [5]), the “Fold Enrichment relative to AAV9, Brain (NHP)” value was 120.985 fold. Also, the “Fold Enrichment relative to AAV9, DRG (NHP)” value in assay [2] (NGS fold-enrichment, NHP DRG) is on record as 0.000 fold. The “Fold Enrichment relative to AAV9, Heart (NHP)” value in assay [2] (NGS fold-enrichment, NHP heart) is listed as 0.029 fold. In assay [2] (setting [7]), the “Fold Enrichment relative to AAV9, Liver DNA (NHP)” value amounted to 0.009 fold. The “Fold Enrichment relative to AAV9, Liver RNA (NHP)” value in assay [2] (setting [8]) is recorded as 0.000 fold. In addition, the “Fold Enrichment relative to AAV9, Muscle (NHP)” value in assay [2] (setting [9]) worked out at 0.000 fold.
As to KTSNGSGSPHSKAHYQQT, the “Fold Enrichment relative to AAV9, Brain (Mouse)” value in assay [1] (mouse brain) is reported as 54.162 fold. The “Fold Enrichment relative to AAV9, Brain (NHP)” value in assay [2] (setting [15]) is given as 54.414 fold. In addition, the “Fold Enrichment relative to AAV9, DRG (NHP)” value in assay [2] (NHP DRG) came to 0.000 fold. In assay [2] (NHP heart), the “Fold Enrichment relative to AAV9, Heart (NHP)” value stood at 0.251 fold. The “Fold Enrichment relative to AAV9, Liver DNA (NHP)” value in assay [2] (NHP liver, DNA) stood at 0.204 fold. Besides, the “Fold Enrichment relative to AAV9, Liver RNA (NHP)” value in assay [2] (NHP liver, RNA) was determined as 0.249 fold. For the same sequence, the “Fold Enrichment relative to AAV9, Muscle (NHP)” value in assay [2] (NHP muscle) was 0.000 fold.
KTERGSGSPHSKAQNQQT: the “Fold Enrichment relative to AAV9, Brain (Mouse)” value in assay [1] (mouse brain) stood at 85.368 fold. In addition, the “Fold Enrichment relative to AAV9, Brain (NHP)” value in assay [2] (setting [15]) stood at 53.475 fold. Besides, the “Fold Enrichment relative to AAV9, DRG (NHP)” value in assay [2] (NHP DRG) came out at 0.000 fold. The “Fold Enrichment relative to AAV9, Heart (NHP)” value in assay [2] (NHP heart) worked out at 0.030 fold. For the same sequence, the “Fold Enrichment relative to AAV9, Liver DNA (NHP)” value in assay [2] (NHP liver, DNA) is 0.175 fold. Moreover, the “Fold Enrichment relative to AAV9, Liver RNA (NHP)” value in assay [2] (NHP liver, RNA) worked out at 1.416 fold. Besides, in assay [2] (NHP muscle), the “Fold Enrichment relative to AAV9, Muscle (NHP)” value came to 0.000 fold.
In the case of KTSNGSGSPHSKAQNLQI, the “Fold Enrichment relative to AAV9, Brain (Mouse)” value in assay [1] (mouse brain) amounted to 74.823 fold. In addition, in assay [2] (setting [15]), the “Fold Enrichment relative to AAV9, Brain (NHP)” value stood at 52.843 fold. The “Fold Enrichment relative to AAV9, DRG (NHP)” value in assay [2] (NHP DRG) is listed as 0.000 fold. The “Fold Enrichment relative to AAV9, Heart (NHP)” value in assay [2] (NHP heart) turned out to be 0.000 fold. For the same sequence, the “Fold Enrichment relative to AAV9, Liver DNA (NHP)” value in assay [2] (NHP liver, DNA) is recorded as 0.214 fold. In assay [2] (NHP liver, RNA), the “Fold Enrichment relative to AAV9, Liver RNA (NHP)” value is 0.178 fold. For the same sequence, the “Fold Enrichment relative to AAV9, Muscle (NHP)” value in assay [2] (NHP muscle) amounted to 1.605 fold.
With KSINGGGSPHSKAQYQQT, in assay [1] (mouse brain), the “Fold Enrichment relative to AAV9, Brain (Mouse)” value amounted to 65.952 fold. Besides, in assay [2] (setting [15]), the “Fold Enrichment relative to AAV9, Brain (NHP)” value was 54.612 fold. Moreover, the “Fold Enrichment relative to AAV9, DRG (NHP)” value in assay [2] (NHP DRG) is reported as 0.000 fold. Also, the “Fold Enrichment relative to AAV9, Heart (NHP)” value in assay [2] (NHP heart) is listed as 0.000 fold. In assay [2] (NHP liver, DNA), the “Fold Enrichment relative to AAV9, Liver DNA (NHP)” value is reported as 0.010 fold. For the same sequence, the “Fold Enrichment relative to AAV9, Liver RNA (NHP)” value in assay [2] (NHP liver, RNA) turned out to be 0.105 fold. The “Fold Enrichment relative to AAV9, Muscle (NHP)” value in assay [2] (NHP muscle) was determined as 0.000 fold.
